Reference: US9695132B2, “Heteroaryl compounds and uses thereof” (Celgene CAR LLC, priority 2013, dated 2017)

These molecules were tested against FGFR4-WT (Homo sapiens (Human), UniProt P22455) (assay: Omnia assay for potency assessment against FGFR4 enzyme). Settings: method a: [FGFR4-WT]=10 nM (Invitrogen), [ATP]=300 uM, [Y10-Sox]=10 uM.
Format: biochemical
Experimental: A 10× stock solution of FGFR4-WT (PR4380C), (from Invitrogen, Carlsbad, Calif.) corresponding to method a in Table 7, was prepared as described below. Alternatively, a 10× stock solution of FGFR4-WT (F01-11G), (SignalChem, Richmond, BC) corresponding to method b in Table 7, was prepared as described below. A solution of 1.4×ATP (AS001A) and 5× Tyr-Sox conjugated peptide substrate (KNZ3101) were prepared in 1× kinase reaction buffer consisting of 20 mM Tris, pH 7.5, 5 mM MgCl2, 1 mM EGTA, 5 mM β-glycerophosphate, 5% glycerol (10× stock, KB002A) and 0.2 mM DTT (DS001A). […] The serially diluted compounds were prepared on a Tecan EVO100. A second addition of 10 μl of Tyr-Sox FGFR4 substrate was added to each well and the kinase reactions were started with the addition of 35 μL of 1.4×ATP. The reactions were monitored every 71 seconds for 240 minutes at λex360/λem485 in a Synergy plate reader from BioTek (Winooski, Vt.).

Sequence of FGFR4-WT (P22455 22-802): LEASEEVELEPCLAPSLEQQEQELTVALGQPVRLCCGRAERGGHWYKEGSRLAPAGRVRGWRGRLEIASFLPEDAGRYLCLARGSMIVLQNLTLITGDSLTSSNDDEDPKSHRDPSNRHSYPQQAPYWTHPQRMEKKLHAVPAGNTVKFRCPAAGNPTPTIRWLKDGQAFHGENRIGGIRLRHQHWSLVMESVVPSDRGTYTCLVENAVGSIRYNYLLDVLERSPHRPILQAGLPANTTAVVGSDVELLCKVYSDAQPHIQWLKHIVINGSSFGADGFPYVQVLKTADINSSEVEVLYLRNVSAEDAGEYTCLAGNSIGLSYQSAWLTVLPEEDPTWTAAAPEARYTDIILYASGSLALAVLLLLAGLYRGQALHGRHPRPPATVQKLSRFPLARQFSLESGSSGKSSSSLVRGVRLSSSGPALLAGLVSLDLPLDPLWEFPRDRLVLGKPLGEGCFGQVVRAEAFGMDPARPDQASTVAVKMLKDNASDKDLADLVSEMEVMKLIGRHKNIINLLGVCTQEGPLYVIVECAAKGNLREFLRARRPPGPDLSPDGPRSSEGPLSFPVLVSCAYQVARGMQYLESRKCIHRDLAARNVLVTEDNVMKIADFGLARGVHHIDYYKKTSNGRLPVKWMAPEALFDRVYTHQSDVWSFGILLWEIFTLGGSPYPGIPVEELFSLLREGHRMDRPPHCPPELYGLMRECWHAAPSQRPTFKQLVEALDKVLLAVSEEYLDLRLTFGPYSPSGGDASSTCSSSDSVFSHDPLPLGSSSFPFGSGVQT

`C=CC(=O)Nc1cc(C2=CCN(CC)CC2)ccc1Nc1ncc2c(n1)N(C)C(=O)N(c1cc(OC)cc(OC)c1)C2` [Compound I-56] and `C=CC(=O)Nc1cc(-c2cnn(C)c2)ccc1Nc1ncc2c(n1)N(C)C(=O)N(c1cc(OC)cc(OC)c1)C2` [Compound I-77] cannot be ordered by IC50: under 100 nM for the first, under 100 nM for the second.

`C=CC(=O)Nc1ccccc1Nc1ncc2c(n1)N(CC)C(=O)N(CC)C2` [Compound I-120] and `C=CC(=O)Nc1ccccc1Nc1ncc2c(n1)N(C)C(=O)N(C1CC1)C2` [Compound I-51] cannot be ordered by IC50: over 1000 nM for the first, over 1000 nM for the second.

`C=CC(=O)Nc1ccccc1Nc1ncc2c(n1)N(CC1CCNCC1)C(=O)N(c1cc(OC)cc(OC)c1)C2` [Compound I-40] and `C=CC(=O)Nc1ccccc1Nc1ncc2c(n1)N(C1CC1)C(=O)N(c1cc(OC)cc(OC)c1)C2` [Compound I-34] cannot be ordered by IC50: under 100 nM for the first, under 100 nM for the second.

First: COc1cc(OC)cc(N2Cc3cnc(Nc4ccccc4)nc3N(C)C2=O)c1 [Compound I-237]
Second: C=CS(=O)(=O)Nc1ccccc1Nc1ncc2c(n1)N(C)C(=O)N(c1cc(OC)cc(OC)c1)C2 [Compound I-67]
The IC50 of the first is higher: 101 to 500 nM for the first, under 100 nM for the second. The second is the more potent here.

`C=CC(=O)Nc1ccccc1Nc1ncc2c(n1)N(Cc1csc(C)n1)C(=O)N(c1c(Cl)c(OC)cc(OC)c1Cl)C2` [Compound I-134] and `C=CC(=O)Nc1ccccc1Nc1ncc2c(n1)N(Cc1ccn(C)n1)C(=O)N(c1c(Cl)c(OC)cc(OC)c1Cl)C2` [Compound I-136] cannot be ordered by IC50: under 100 nM for the first, under 100 nM for the second.

Compared with `C=CC(=O)N[C@@H]1CCCC[C@@H]1Nc1ncc2c(n1)N(Cc1ccccc1)C(=O)N(c1c(Cl)c(OC)cc(OC)c1Cl)C2` [Compound I-66], `C=CC(=O)N[C@H]1CCCC[C@H]1Nc1ncc2c(n1)N(Cc1cn[nH]c1)C(=O)N(c1c(Cl)c(OC)cc(OC)c1Cl)C2` [Compound I-152] is lower in IC50: over 1000 nM for the first, under 100 nM for the second.

`C=CC(=O)NC1CN(c2ccccn2)CC1Nc1ncc2c(n1)N(C)C(=O)N(c1c(Cl)c(OC)cc(OC)c1Cl)C2` (stereo not drawn) [Compound I-202] and `C=CC(=O)NC1CNC(=O)CC1Nc1ncc2c(n1)N(C)C(=O)N(c1c(Cl)c(OC)cc(OC)c1Cl)C2` (stereo not drawn) [Compound I-196] cannot be ordered by IC50: under 100 nM for the first, under 100 nM for the second.

`C=CC(=O)N(C)c1ccccc1Nc1ncc2c(n1)N(Cc1ccccc1)C(=O)N(c1c(Cl)c(OC)cc(OC)c1Cl)C2` [Compound I-37] and `C=CC(=O)N(C)c1ccccc1Nc1ncc2c(n1)N(C)C(=O)N(c1c(Cl)c(OC)cc(OC)c1Cl)C2` [Compound I-29] fall in the same range of IC50: 101 to 500 nM for the first, 101 to 500 nM for the second.

`C=CC(=O)Nc1ccccc1Nc1ncc2c(n1)N(CC1CC1)C(=O)N(c1c(Cl)c(OC)cc(OC)c1Cl)C2` [Compound I-130] and `C=CC(=O)Nc1ccccc1Nc1ncc2c(n1)N(CC(F)F)C(=O)N(c1c(Cl)c(OC)cc(OC)c1Cl)C2` [Compound I-103] cannot be ordered by IC50: under 100 nM for the first, under 100 nM for the second.

First: C=CC(=O)Nc1ccccc1Nc1ncc2c(n1)N(C)C(=O)N(c1ccccc1)C2 [Compound I-38]
Second: C=CC(=O)Nc1ccccc1Nc1ncc2c(n1)N(C)C(=O)N(c1cc(OC)cc(OC)c1F)C2 [Compound I-108]
The IC50 of the first is higher: 501 to 999 nM for the first, under 100 nM for the second.

`C=CC(=O)Nc1ccccc1Nc1ncc2c(n1)N(Cc1ccnc(N)c1)C(=O)N(c1c(Cl)c(OC)cc(OC)c1Cl)C2` [Compound I-135] and `C=CC(=O)Nc1ccccc1Nc1ncc2c(n1)N(Cc1ccc(F)c(N)c1)C(=O)N(c1c(Cl)c(OC)cc(OC)c1Cl)C2` [Compound I-144] cannot be ordered by IC50: under 100 nM for the first, under 100 nM for the second.

`C=CC(=O)Nc1ccccc1Nc1ncc2c(n1)N(Cc1nccs1)C(=O)N(c1c(Cl)c(OC)cc(OC)c1Cl)C2` [Compound I-91] and `C=CC(=O)Nc1ccccc1Oc1ncc2c(n1)N(C)C(=O)N(c1c(Cl)c(OC)cc(OC)c1Cl)C2` [Compound I-65] cannot be ordered by IC50: under 100 nM for the first, under 100 nM for the second.

`C=CC(=O)Nc1cc(C(=O)NC2CCN(C)CC2)ccc1Nc1ncc2c(n1)N(C)C(=O)N(c1c(Cl)c(OC)cc(OC)c1Cl)C2` [Compound I-150] and `C=CC(=O)Nc1cc(-c2nnn(C)n2)ccc1Nc1ncc2c(n1)N(C)C(=O)N(c1c(Cl)c(OC)cc(OC)c1Cl)C2` [Compound I-145] cannot be ordered by IC50: under 100 nM for the first, under 100 nM for the second.

Going from `C=CC(=O)Nc1ccccc1Nc1ncc2c(n1)N(CC(=O)OC(C)(C)C)C(=O)N(c1cc(OC)cc(OC)c1)C2` [Compound I-96] to `C=CC(=O)Nc1ccccc1Nc1ncc2c(n1)N(CC1CCN(C(=O)OC(C)(C)C)CC1)C(=O)N(c1cc(OC)cc(OC)c1)C2` [Compound I-60], the IC50 falls from over 1000 nM to under 100 nM. The second is the more potent here.

`C=CC(=O)Nc1ccc(N2CCN(CC)CC2)cc1Nc1ncc2c(n1)N(C)C(=O)N(c1cc(OC)cc(OC)c1)C2` [Compound I-30] and `C=CC(=O)Nc1cc(N2CCOCC2)ccc1Nc1ncc2c(n1)N(C)C(=O)N(c1cc(OC)cc(OC)c1)C2` [Compound I-17] cannot be ordered by IC50: under 100 nM for the first, under 100 nM for the second.

First: C=CC(=O)NC1CCCCC1Nc1ncc2c(n1)N(CC1CC1)C(=O)N(c1cc(OC)cc(OC)c1Cl)C2 (stereo not drawn) [Compound I-101]
Second: C=CC(=O)N[C@H]1CCCC[C@H]1Nc1ncc2c(n1)N(Cc1ccn(C)n1)C(=O)N(c1c(Cl)c(OC)cc(OC)c1Cl)C2 [Compound I-147]
The IC50 of the first is higher: 101 to 500 nM for the first, under 100 nM for the second. The second is the more potent here.

Compared with `C=CC(=O)Nc1ccc(-c2nccs2)cc1Nc1ncc2c(n1)N(C)C(=O)N(c1cc(OC)cc(OC)c1)C2` [Compound I-78], `C=CC(=O)Nc1cc(-c2nccs2)ccc1Nc1ncc2c(n1)N(C)C(=O)N(c1cc(OC)cc(OC)c1)C2` [Compound I-84] is higher in IC50: under 100 nM for the first, 501 to 999 nM for the second. The first is the more potent here.

`C=CC(=O)Nc1cc(N2CCN(C(=O)CCC(=O)O)CC2)ccc1Nc1ncc2c(n1)N(C)C(=O)N(c1c(Cl)c(OC)cc(OC)c1Cl)C2` [Compound I-123] and `C=CC(=O)Nc1ccc(C)cc1Nc1ncc2c(n1)N(C)C(=O)N(c1cc(OC)cc(OC)c1)C2` [Compound I-49] cannot be ordered by IC50: under 100 nM for the first, under 100 nM for the second.

`C=CC(=O)Nc1ccccc1Nc1ncc2c(n1)N(Cc1cccc(C#N)c1)C(=O)N(c1cc(OC)cc(OC)c1)C2` [Compound I-90] and `C=CCN1C(=O)N(c2cc(OC)cc(OC)c2)Cc2cnc(Nc3ccccc3NC(=O)C=C)nc21` [Compound I-32] cannot be ordered by IC50: under 100 nM for the first, under 100 nM for the second.

`C=CCCN1C(=O)N(c2cc(OC)cc(OC)c2)Cc2cnc(Nc3ccccc3NC(=O)C=C)nc21` [Compound I-57] and `C=CC(=O)Nc1ccccc1Nc1ncc2c(n1)N(CCC(O)CO)C(=O)N(c1cc(OC)cc(OC)c1)C2` (stereo not drawn) [Compound I-58] cannot be ordered by IC50: under 100 nM for the first, under 100 nM for the second.

Compared with `C=CC(=O)Nc1ccccc1Nc1ncc2c(n1)N(CC1CC1)C(=O)N(c1cc(OC)cc(OC)c1F)C2` [Compound I-109], `C=CC(=O)Nc1ccccc1Nc1ncc2c(n1)N(C)C(=O)N(C1CCCCC1)C2` [Compound I-52] is higher in IC50: under 100 nM for the first, 501 to 999 nM for the second.

`C=CC(=O)N[C@H]1CCCC[C@H]1Nc1ncc2c(n1)N(C)C(=O)N(c1ccc(OC)cc1)C2` [Compound I-222] was tested, and the IC50 was over 1000 nM.

Same assay, conditions: method b: [FGFR4-WT]=2.5 nM (SignalChem), [ATP]=250 uM, [Y10-Sox]=10 uM

First: C=CC(=O)Nc1cc(Cl)c(Cl)cc1Nc1ncc2c(n1)N(Cc1ccccc1)C(=O)N(c1c(Cl)c(OC)cc(OC)c1Cl)C2 [Compound I-11]
Second: C=CC(=O)Nc1ccccc1Nc1ncc2c(n1)N(Cc1ccc(Cl)c(OC)c1)C(=O)N(c1c(Cl)c(OC)cc(OC)c1Cl)C2 [Compound I-24]
The IC50 of the first is higher: 501 to 999 nM for the first, under 100 nM for the second.

`C=CC(=O)Nc1cc(N2CCN(CC)CC2)ccc1Nc1ncc2c(n1)N(C)C(=O)N(c1cc(OC)cc(OC)c1)C2` [Compound I-15] and `C=CC(=O)NCc1ccccc1Nc1ncc2c(n1)N(C)C(=O)N(c1c(Cl)c(OC)cc(OC)c1Cl)C2` [Compound I-181] cannot be ordered by IC50: under 100 nM for the first, under 100 nM for the second.

`CCC(=O)Nc1ccccc1Nc1ncc2c(n1)N(C)C(=O)N(c1c(Cl)c(OC)cc(OC)c1Cl)C2` [Compound I-235] was tested, and the IC50 was 101 to 500 nM.
